Results on 4 cell lines are retold here after the supplement of paper PMC10307832.

Common to all, as to experiment: relative viability (nuclei count vs DMSO), 5 days (fraction); higher = more cells survive
Compound in the experiment “DM3189 + Navitoclax”: C1CN(CCN1)C2=CC=C(C=C2)C3=CN4C(=C(C=N4)C5=CC=NC6=CC=CC=C56)N=C3 [DM3189] + CC1(C)CCC(c2ccc(Cl)cc2)=C(CN2CCN(c3ccc(C(=O)NS(=O)(=O)c4ccc(N[C@H](CCN5CCOCC5)CSc5ccccc5)c(S(=O)(=O)C(F)(F)F)c4)cc3)CC2)C1 [Navitoclax] (partner 0.5 µM)
In a few lines:
(§1)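 Lung cancer cell lines were seeded in 1536-well plates and dosed by pin tool the next day, with either a single drug or a fixed anchor-drug dose combined with five library-drug doses (not always all listed) spaced in √10 steps. Five days later, one step fixed the cells and stained their nuclei (final 0.05% Triton X-100, 1% formaldehyde, 1 ug/ml Hoechst), and nuclei were counted on 4× images. Relative viability is the nuclei count in treated wells divided by the count in vehicle wells, and each value is the median of duplicate plates.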

Compound in the experiment “DM3189 + Foretinib”: C1CN(CCN1)C2=CC=C(C=C2)C3=CN4C(=C(C=N4)C5=CC=NC6=CC=CC=C56)N=C3 [DM3189] + COc1cc2c(Oc3ccc(NC(=O)C4(C(=O)Nc5ccc(F)cc5)CC4)cc3F)ccnc2cc1OCCCN1CCOCC1 [Foretinib] (partner 0.25 µM)
In a few lines:
as §1

Compound in the experiment “DM3189 + OSI-027”: C1CN(CCN1)C2=CC=C(C=C2)C3=CN4C(=C(C=N4)C5=CC=NC6=CC=CC=C56)N=C3 [DM3189] + COc1cccc2cc(-c3nc([C@H]4CC[C@H](C(=O)O)CC4)n4ncnc(N)c34)[nH]c12 [OSI-027] (partner 0.5 µM)
A digest of the protocol: as §1

Compound in the experiment “DM3189 + Tozasertib”: C1CN(CCN1)C2=CC=C(C=C2)C3=CN4C(=C(C=N4)C5=CC=NC6=CC=CC=C56)N=C3 [DM3189] + Cc1cc(Nc2cc(N3CCN(C)CC3)nc(Sc3ccc(NC(=O)C4CC4)cc3)n2)n[nH]1 [Tozasertib] (partner 0.1 µM)
A digest of the protocol:
as §1

Compound in the experiment “DM3189 + Pemetrexed”: C1CN(CCN1)C2=CC=C(C=C2)C3=CN4C(=C(C=N4)C5=CC=NC6=CC=CC=C56)N=C3 [DM3189] + Nc1nc2[nH]cc(CCc3ccc(C(=O)N[C@@H](CCC(=O)O)C(=O)O)cc3)c2c(=O)[nH]1 [Pemetrexed] (partner 0.2 µM)
A digest of the protocol: as §1

In the case of NCI-H3122, the relative viability with DM3189 + Navitoclax (first compound 0.08 µM) was found to be 0.97; in the experiment with DM3189 + Navitoclax (first compound 0.253 µM) it was 0.968; with DM3189 + Navitoclax (first compound 0.8 µM), 0.957; with DM3189 + Navitoclax (first compound 2.53 µM) it was 0.824; with DM3189 + Foretinib (first compound 0.08 µM), 0.98; with DM3189 + Foretinib (first compound 0.253 µM) it was 0.909. The relative viability stood at 0.735 with DM3189 + Foretinib (first compound 0.8 µM); 0.805 in the experiment with DM3189 + Foretinib (first compound 2.53 µM); 1.16 in the experiment with DM3189 + OSI-027 (first compound 0.08 µM); 0.916 with DM3189 + OSI-027 (first compound 0.253 µM); 0.909 with DM3189 + OSI-027 (first compound 0.8 µM); 1.04 with DM3189 + OSI-027 (first compound 2.53 µM). Further, the relative viability was found to be 0.38 with DM3189 + Tozasertib (first compound 0.08 µM); 0.35 with DM3189 + Tozasertib (first compound 0.253 µM); 0.333 with DM3189 + Tozasertib (first compound 0.8 µM); 0.382 in the experiment with DM3189 + Tozasertib (first compound 2.53 µM); 0.203 in the experiment with DM3189 + Pemetrexed (first compound 0.08 µM); 0.197 in the experiment with DM3189 + Pemetrexed (first compound 0.253 µM). Moreover, the relative viability with DM3189 + Pemetrexed (first compound 0.8 µM) was found to be 0.184; with DM3189 + Pemetrexed (first compound 2.53 µM), 0.159.
Regarding PC-3 [JPC-3], the relative viability with DM3189 + Navitoclax (first compound 0.08 µM) is 0.826; in the experiment with DM3189 + Navitoclax (first compound 0.253 µM), 0.83; with DM3189 + Navitoclax (first compound 0.8 µM) it was 0.859; in the experiment with DM3189 + Navitoclax (first compound 2.53 µM) it was 0.892; with DM3189 + Foretinib (first compound 0.08 µM), 1.09; with DM3189 + Foretinib (first compound 0.253 µM), 1.1. In addition, the relative viability in the experiment with DM3189 + Foretinib (first compound 0.8 µM) was found to be 0.993; in the experiment with DM3189 + Foretinib (first compound 2.53 µM) it was 1.08; with DM3189 + OSI-027 (first compound 0.08 µM), 0.887; with DM3189 + OSI-027 (first compound 0.253 µM), 0.422; in the experiment with DM3189 + OSI-027 (first compound 0.8 µM), 0.79; with DM3189 + OSI-027 (first compound 2.53 µM), 0.587. Further, the relative viability came out at 0.84 with DM3189 + Tozasertib (first compound 0.08 µM); 0.968 with DM3189 + Tozasertib (first compound 0.253 µM); 0.848 with DM3189 + Tozasertib (first compound 0.8 µM); 0.774 with DM3189 + Tozasertib (first compound 2.53 µM); 1.5 with DM3189 + Pemetrexed (first compound 0.08 µM); 1.02 with DM3189 + Pemetrexed (first compound 0.253 µM). For the same cell line, the relative viability with DM3189 + Pemetrexed (first compound 0.8 µM) came out at 1.08; in the experiment with DM3189 + Pemetrexed (first compound 2.53 µM), 0.856.
As to PC-14, the relative viability came to 1.04 in the experiment with DM3189 + Navitoclax (first compound 0.08 µM); 1.03 with DM3189 + Navitoclax (first compound 0.253 µM); 1 with DM3189 + Navitoclax (first compound 0.8 µM); 1.08 with DM3189 + Navitoclax (first compound 2.53 µM); 1.02 with DM3189 + Foretinib (first compound 0.08 µM); 0.985 in the experiment with DM3189 + Foretinib (first compound 0.253 µM). For the same cell line, the relative viability with DM3189 + Foretinib (first compound 0.8 µM) was determined as 0.876; in the experiment with DM3189 + Foretinib (first compound 2.53 µM) it was 1.07; in the experiment with DM3189 + OSI-027 (first compound 0.08 µM), 1.05; in the experiment with DM3189 + OSI-027 (first compound 0.253 µM), 0.837; in the experiment with DM3189 + OSI-027 (first compound 0.8 µM), 0.76; with DM3189 + OSI-027 (first compound 2.53 µM), 0.946. Moreover, the relative viability with DM3189 + Tozasertib (first compound 0.08 µM) came out at 0.547; with DM3189 + Tozasertib (first compound 0.253 µM), 0.522; in the experiment with DM3189 + Tozasertib (first compound 0.8 µM) it was 0.567; with DM3189 + Tozasertib (first compound 2.53 µM), 0.606; with DM3189 + Pemetrexed (first compound 0.08 µM), 0.142; in the experiment with DM3189 + Pemetrexed (first compound 0.253 µM), 0.125. Also, the relative viability was found to be 0.14 in the experiment with DM3189 + Pemetrexed (first compound 0.8 µM) and 0.122 in the experiment with DM3189 + Pemetrexed (first compound 2.53 µM).
Take RERF-LC-KJ: the relative viability was determined as 0.997 with DM3189 + Navitoclax (first compound 0.08 µM); 1.35 with DM3189 + Navitoclax (first compound 0.253 µM); 0.81 in the experiment with DM3189 + Navitoclax (first compound 0.8 µM); 1.09 with DM3189 + Navitoclax (first compound 2.53 µM); 1.03 with DM3189 + Foretinib (first compound 0.08 µM); 0.904 with DM3189 + Foretinib (first compound 0.253 µM). In addition, the relative viability stood at 0.927 in the experiment with DM3189 + Foretinib (first compound 0.8 µM); 0.97 with DM3189 + Foretinib (first compound 2.53 µM); 0.666 with DM3189 + OSI-027 (first compound 0.08 µM); 0.59 with DM3189 + OSI-027 (first compound 0.253 µM); 0.586 with DM3189 + OSI-027 (first compound 0.8 µM); 0.601 in the experiment with DM3189 + OSI-027 (first compound 2.53 µM). The relative viability came to 0.533 with DM3189 + Tozasertib (first compound 0.08 µM); 0.456 in the experiment with DM3189 + Tozasertib (first compound 0.253 µM); 0.466 with DM3189 + Tozasertib (first compound 0.8 µM); 0.43 with DM3189 + Tozasertib (first compound 2.53 µM); 0.461 in the experiment with DM3189 + Pemetrexed (first compound 0.08 µM); 0.471 with DM3189 + Pemetrexed (first compound 0.253 µM). Moreover, the relative viability with DM3189 + Pemetrexed (first compound 0.8 µM) turned out to be 0.469; in the experiment with DM3189 + Pemetrexed (first compound 2.53 µM) it was 0.559.
